Marks after values point to notes of the source that are not given here.
Experiments:
[1] = tested on: broiler (Ross 308; mixed sex); experiment: Growth performance in broilers, feed additives vs ampicillin (Example 5); type: in vivo; details: for ADFI / ADG / BW / FCR / Mortality / Survivability: 0.1% in feed
Experimental: The pure oxazaborolidines prepared by the method of Example 1 was investigated to assess its potential as a growth promotor in poultry.
(§1) 1200 birds, 1-day old broiler (Ross 308; mixed sex) were treated over 32 days. 4 dietary groups were assessed with 6 replicates per diet; 50 birds per pen. The four Dietary groups consisted of (1) a control basal diet and (2) feed supplemented with a feed additive according to an embodiment of the present invention (0.1% 2-butyl-3,4 dimethyl-5-phenyl 1,3,2-oxazaborolidine-compound 2), (3) feed supplemented with a feed additive according to another embodiment of the present invention (0.1% 3,4-dimethyl-2-5-diphenyl-1,3,2-oxazaborolidine-compound 1) and (4) feed supplemented with the known antibiotic, ampicillin (0.1%).
(§2) The feeding programme followed a typical feeding program on a farm (3 phases: starter; grower; finisher) with the feed additives added to the basal diet with top dressing.
(§3) The following measurements were taken:
Growth Performance: Body weight (BW); Weight gain (Average Daily Gain—ADG); Feed intake (Average Daily Feed Intake—ADFI); FCR (food conversion ratio—feed input divided by feed output); Mortality Production Index.

cecal microbiome = experiment: Cecal bacterial microbiome α-diversity by 16S sequencing (Example 5); type: in vivo, broiler chickens; details: first week; genus level; compared to the basal control; p=0.0184 (Compound 1) and 0.0393 (Compound 2), two-way ANOVA; 0.1% in diet
Experimental: as §1
Microbiome: Cecal samples were harvested at three time points (week 1, week 3 and week 5). Six replicates were harvested per dietary group. Total DNA was purified and the bacterial microbiome was analysed by 16S sequencing.
Plots display the smallest and largest value as the whiskers, with the box comprising the 25th percentile, median and 75th percentile.

[2] = tested on: broiler (Ross 308; mixed sex); experiment: Growth performance in broilers, feed additive (Example 4); type: in vivo; details: 0.055% in feed
Experimental: The pure oxazaborolidine compound 5 (R)-(+)-2-Methyl-CBS-oxazaborolidine prepared according to Example 1 was investigated to assess its potential as a growth promoter in poultry.
240 birds, 1-day old broiler (Ross 308; mixed sex) were treated over 32 days. Two dietary groups were given six replicates per diet; […]. The two treatments consisted of (1) a control basal diet and (2) feed supplemented with a feed additive according to an embodiment of the present invention (0.055% (R)-(+)-2-Methyl-CBS-oxazaborolidine).
as §2, §3
Growth Performance: Body weight (BW); Weight gain (Average Daily Gain-ADG); Feed intake (Average Daily Feed Intake—ADFI); FCR (food conversion ratio-feed input divided by feed output).

[3] = 0.1% in diet, compared to the basal diet Control

**Q.** CC1(C)S[C@@H]2[C@H](NC(=O)[C@H](N)c3ccccc3)C(=O)N2[C@H]1C(=O)O [ATB, ampicillin, reference compound] was tested. Which ADFI ([1]; Grower (8-21 d)) did it give?
**A.** 85.9^A g

**Q.** And the ADG ([1]; Grower (8-21 d))?
**A.** 62.6^A g

**Q.** What about the BW ([1]; Grower (8-21 d)) of the same molecule?
**A.** 1074.6^A g

**Q.** What about the FCR ([1]; Grower (8-21 d)) of the same molecule?
**A.** 1.42^bc

**Q.** And the Mortality ([1]; Grower (8-21 d))?
**A.** 1.53%

**Q.** And the ADFI ([1]; Grower (22-32 d))?
**A.** 155.9^A g

**Q.** And the ADG ([1]; Grower (22-32 d))?
**A.** 83.0^A g

**Q.** What about the BW ([1]; Grower (22-32 d)) of the same molecule?
**A.** 1987.4^A g

**Q.** What about the FCR ([1]; Grower (22-32 d)) of the same molecule?
**A.** 2.06

**Q.** And the Mortality ([1]; Grower (22-32 d))?
**A.** 0.00%

**Q.** What about the ADFI ([1]; Overall (1-32 d)) of the same molecule?
**A.** 96.0^A g

**Q.** What about the ADG ([1]; Overall (1-32 d)) of the same molecule?
**A.** 60.7^A g

**Q.** What about the FCR ([1]; Overall (1-32 d)) of the same molecule?
**A.** 1.66^y

**Q.** And the Survivability ([1]; Overall (1-32 d))?
**A.** 95.4%

**Q.** And the ADFI ([1]; Starter (1-7 d))?
**A.** 21.9^A g

**Q.** And the ADG ([1]; Starter (1-7 d))?
**A.** 22.0^A g

**Q.** What about the BW ([1]; Starter (1-7 d)) of the same molecule?
**A.** 199.1^A g

**Q.** And the FCR ([1]; Starter (1-7 d))?
**A.** 0.99^C

**Q.** What about the Mortality ([1]; Starter (1-7 d)) of the same molecule?
**A.** 2.33%

**Q.** Which results are given for C[C@H]1[C@@H](c2ccccc2)OB(c2ccccc2)N1C [Compound 1, 3,4-dimethyl-2-5-diphenyl-1,3,2-oxazaborolidine]?
**A.** α-diversity of the cecal microbiome (cecal microbiome): significantly increased; decrease of overall FCR [1, 3]: 0.59%; ADFI ([1]; Grower (8-21 d)): 72.7^C g; ADG ([1]; Grower (8-21 d)): 51.5^C g; BW ([1]; Grower (8-21 d)): 892.8^C g; FCR ([1]; Grower (8-21 d)): 1.46^ab; Mortality ([1]; Grower (8-21 d)): 0.37%; ADFI ([1]; Grower (22-32 d)): 133.5^C g; ADG ([1]; Grower (22-32 d)): 70.6^C g; BW ([1]; Grower (22-32 d)): 1669.4^C g; FCR ([1]; Grower (22-32 d)): 2.08; Mortality ([1]; Grower (22-32 d)): 0.40%; ADFI ([1]; Overall (1-32 d)): 82.0^C g; ADG ([1]; Overall (1-32 d)): 50.8^C g; FCR ([1]; Overall (1-32 d)): 1.69^x; Survivability ([1]; Overall (1-32 d)): 97.9%; ADFI ([1]; Starter (1-7 d)): 19.5^B g; ADG ([1]; Starter (1-7 d)): 18.2^C g; BW ([1]; Starter (1-7 d)): 172.4^C g; FCR ([1]; Starter (1-7 d)): 1.07^A; Mortality ([1]; Starter (1-7 d)): 1.00%

**Q.** Which “α-diversity of the cecal microbiome” value (cecal microbiome) does the source give for CCCCB1OC(c2ccccc2)C(C)N1C (stereo not drawn) [Compound 2, 2-butyl-3,4 dimethyl-5-phenyl 1,3,2-oxazaborolidine] here?
**A.** significantly increased

**Q.** What about the “decrease of overall FCR” value [1, 3] of the same molecule?
**A.** 1.76%

**Q.** And the “increase of overall ADFI” value [1, 3]?
**A.** 4.6%

**Q.** What about the “increase of overall ADG” value [1, 3] of the same molecule?
**A.** 5.7%

**Q.** And the ADFI ([1]; Grower (8-21 d))?
**A.** 80.7^B g

**Q.** What about the ADG ([1]; Grower (8-21 d)) of the same molecule?
**A.** 58.6^B g

**Q.** What about the BW ([1]; Grower (8-21 d)) of the same molecule?
**A.** 1002.2^B g

**Q.** And the FCR ([1]; Grower (8-21 d))?
**A.** 1.42^c

**Q.** What about the Mortality ([1]; Grower (8-21 d)) of the same molecule?
**A.** 1.12%

**Q.** And the ADFI ([1]; Grower (22-32 d))?
**A.** 144.0^B g

**Q.** What about the ADG ([1]; Grower (22-32 d)) of the same molecule?
**A.** 76.1^B g

**Q.** What about the BW ([1]; Grower (22-32 d)) of the same molecule?
**A.** 1839.0^B g

**Q.** And the FCR ([1]; Grower (22-32 d))?
**A.** 2.09

**Q.** What about the Mortality ([1]; Grower (22-32 d)) of the same molecule?
**A.** 0.42%

**Q.** What about the ADFI ([1]; Overall (1-32 d)) of the same molecule?
**A.** 89.3^B g

**Q.** And the ADG ([1]; Overall (1-32 d))?
**A.** 56.1^B g

**Q.** What about the FCR ([1]; Overall (1-32 d)) of the same molecule?
**A.** 1.67^xy

**Q.** What about the Survivability ([1]; Overall (1-32 d)) of the same molecule?
**A.** 96.7%

**Q.** What about the ADFI ([1]; Starter (1-7 d)) of the same molecule?
**A.** 20.4^B g

**Q.** What about the ADG ([1]; Starter (1-7 d)) of the same molecule?
**A.** 19.6^B g

**Q.** And the BW ([1]; Starter (1-7 d))?
**A.** 182.0^B g

**Q.** And the FCR ([1]; Starter (1-7 d))?
**A.** 1.04^B

**Q.** What about the Mortality ([1]; Starter (1-7 d)) of the same molecule?
**A.** 1.33%

**Q.** And the “increase in body weight gain” value ([1]; finisher phase, 0.1% in diet, compared to the basal diet Control)?
**A.** 5.7%

**Q.** And the “increase in body weight gain” value ([1]; grower phase, 0.1% in diet, compared to the basal diet Control)?
**A.** 8.7%

**Q.** And the “increase in body weight gain” value ([1]; starter phase, 0.1% in diet, compared to the basal diet Control)?
**A.** 4.5%

**Q.** With CB1OC(c2ccccc2)(c2ccccc2)[C@H]2CCCN12 [Compound 5, (R)-(+)-2-Methyl-CBS-oxazaborolidine] as the molecule, how does the ADFI ([2]; Finisher (22-32 d)) read?
**A.** 147.8 g

**Q.** What about the ADG ([2]; Finisher (22-32 d)) of the same molecule?
**A.** 90.1 g

**Q.** What about the BW ([2]; Finisher (22-32 d)) of the same molecule?
**A.** 2078.6 g

**Q.** And the FCR ([2]; Finisher (22-32 d))?
**A.** 1.64

**Q.** And the ADFI ([2]; Grower (8-21 d))?
**A.** 68.3 g

**Q.** What about the ADG ([2]; Grower (8-21 d)) of the same molecule?
**A.** 48.3 g

**Q.** What about the BW ([2]; Grower (8-21 d)) of the same molecule?
**A.** 816.9 g

**Q.** And the FCR ([2]; Grower (8-21 d))?
**A.** 1.41

**Q.** And the ADFI ([2]; Overall (1-32 d))?
**A.** 89.5 g

**Q.** What about the ADG ([2]; Overall (1-32 d)) of the same molecule?
**A.** 58.2 g

**Q.** What about the FCR ([2]; Overall (1-32 d)) of the same molecule?
**A.** 1.52

**Q.** What about the ADFI ([2]; Starter (1-7 d)) of the same molecule?
**A.** 15.5 g

**Q.** And the ADG ([2]; Starter (1-7 d))?
**A.** 14.2 g

**Q.** What about the BW ([2]; Starter (1-7 d)) of the same molecule?
**A.** 140.7 g

**Q.** And the FCR ([2]; Starter (1-7 d))?
**A.** 1.08

— patent US20240360159A1, “NOVEL APPLICATIONS FOR OXAZABOROLIDINES AND NEW METHODS OF MANUFACTURE THEREOF” (Pathway Intermediates Limited, priority 2021, published 2024)
